Experimental findings from ChEMBL document CHEMBL2029275, “Structure-activity relationship of a series of non peptidic RGD integrin antagonists targeting α5β1: part 2” (Bioorg Med Chem Lett, 2012) are described below.

Some results are limits rather than exact numbers.

The subject of series [1] is A375M. As to the kind of experiment: Selectivity ratio of IC50 for integrin alphavbeta3alpha5beta1-mediated human A375M cells adhesion to fibronectin in absence of MK-0429 to IC50 for integrin alpha5beta1-mediated human A375M cells adhesion to fibronectin in presence of MK-0429. Type of series: cell-based.
Series [2] is filed under the species Rattus norvegicus. Kind of series: Free drug level in rat. The conditions noted are these: in vivo. The format is ADME, organism-based.
Series [3] has as its target T1, Integrin alpha-5/beta-1 (Homo sapiens, UniProt P05556+P08648). As to the kind of experiment: Antagonist activity at integrin alpha5beta1 in human K562 cells assessed as inhibition of cell adhesion in presence of human serum albumin. The format is functional, cell-based.
Series [4] addresses T1, Integrin alpha-5/beta-1. Kind of series: Antagonist activity at integrin alpha5beta1 in human A375M cells assessed as inhibition of cell adhesion in presence of Mg2+ and MK-0429. Type of series: functional, cell-based.
Series [5] deals with Integrin alpha-V/beta-3 (Homo sapiens, UniProt P05106+P06756). Kind of series: Antagonist activity at integrin alphaVbeta3 in human A375M cells assessed as cell adhesion to fibrinogen in presence of Mg2+. The format is functional, cell-based.
For series [6], the target named is Fibronectin receptor (Integrin alpha-5/beta-1 and alpha-V/beta-3) (Homo sapiens, UniProt P05106+P05556+P06756+P08648). Kind of series: Antagonist activity at integrin alphavbeta3alpha5beta1 in human A375M cells assessed as inhibition of cell adhesion to fibronectin in presence of Mg2+. Type of series: functional, cell-based.
Series [7] has as its target T1, Integrin alpha-5/beta-1. Kind of series: Antagonist activity at integrin alpha5beta1 in human K562 cells assessed as inhibition of cell adhesion. The format is functional, cell-based.
Series [8] has as its target T1, Integrin alpha-5/beta-1. Kind of series: Binding affinity to integrin alpha5beta1. Type of series: protein-complex assay.
Series [9] is filed under the species Homo sapiens. Kind of series: Free drug level in human. Type of series: ADME, organism-based. As to conditions: in vivo.

Integrin alpha-V/beta-3, sequence (P05106 27-788 limits assumed): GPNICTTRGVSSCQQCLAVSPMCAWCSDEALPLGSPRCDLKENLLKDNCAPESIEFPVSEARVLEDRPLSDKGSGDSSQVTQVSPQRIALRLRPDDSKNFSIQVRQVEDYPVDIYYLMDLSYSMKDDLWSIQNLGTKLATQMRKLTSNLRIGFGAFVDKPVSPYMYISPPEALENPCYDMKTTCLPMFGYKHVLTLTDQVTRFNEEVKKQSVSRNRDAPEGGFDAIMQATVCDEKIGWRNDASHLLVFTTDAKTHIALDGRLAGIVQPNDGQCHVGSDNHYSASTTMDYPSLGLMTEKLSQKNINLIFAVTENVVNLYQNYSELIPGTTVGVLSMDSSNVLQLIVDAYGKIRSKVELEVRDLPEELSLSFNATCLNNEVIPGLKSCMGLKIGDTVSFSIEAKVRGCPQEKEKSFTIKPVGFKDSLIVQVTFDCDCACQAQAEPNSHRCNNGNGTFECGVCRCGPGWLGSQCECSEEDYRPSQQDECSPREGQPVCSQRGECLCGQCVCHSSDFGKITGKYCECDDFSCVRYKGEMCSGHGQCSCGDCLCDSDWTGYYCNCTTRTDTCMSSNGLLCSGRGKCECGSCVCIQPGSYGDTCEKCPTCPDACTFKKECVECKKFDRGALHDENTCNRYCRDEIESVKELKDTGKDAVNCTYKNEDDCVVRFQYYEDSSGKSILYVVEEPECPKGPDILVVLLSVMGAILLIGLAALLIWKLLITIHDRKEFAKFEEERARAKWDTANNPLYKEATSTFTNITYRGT
Integrin alpha-V/beta-3, sequence (P06756 31-889 limits assumed): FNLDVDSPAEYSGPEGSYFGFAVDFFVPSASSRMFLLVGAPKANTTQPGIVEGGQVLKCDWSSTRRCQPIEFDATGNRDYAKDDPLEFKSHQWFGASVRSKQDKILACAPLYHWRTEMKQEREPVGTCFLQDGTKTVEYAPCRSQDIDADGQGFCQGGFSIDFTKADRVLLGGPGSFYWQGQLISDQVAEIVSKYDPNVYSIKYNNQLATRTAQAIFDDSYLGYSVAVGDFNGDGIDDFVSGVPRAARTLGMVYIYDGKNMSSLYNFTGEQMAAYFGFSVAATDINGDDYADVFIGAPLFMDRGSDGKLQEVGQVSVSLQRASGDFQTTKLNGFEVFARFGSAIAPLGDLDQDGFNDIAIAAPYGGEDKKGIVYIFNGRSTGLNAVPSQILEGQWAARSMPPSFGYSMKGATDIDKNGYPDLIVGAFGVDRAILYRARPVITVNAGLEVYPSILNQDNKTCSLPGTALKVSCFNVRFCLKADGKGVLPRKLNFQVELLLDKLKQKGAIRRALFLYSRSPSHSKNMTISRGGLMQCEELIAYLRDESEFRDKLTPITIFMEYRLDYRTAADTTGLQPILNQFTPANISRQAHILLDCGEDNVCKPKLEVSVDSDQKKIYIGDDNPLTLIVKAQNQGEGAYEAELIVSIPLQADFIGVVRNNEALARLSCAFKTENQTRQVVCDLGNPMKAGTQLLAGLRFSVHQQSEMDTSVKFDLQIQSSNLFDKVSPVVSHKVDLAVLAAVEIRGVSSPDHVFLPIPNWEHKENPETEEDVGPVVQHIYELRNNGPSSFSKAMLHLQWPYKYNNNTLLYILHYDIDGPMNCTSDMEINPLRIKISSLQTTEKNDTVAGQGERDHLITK
Integrin alpha-V/beta-3, sequence (P06756 891-1048 limits assumed): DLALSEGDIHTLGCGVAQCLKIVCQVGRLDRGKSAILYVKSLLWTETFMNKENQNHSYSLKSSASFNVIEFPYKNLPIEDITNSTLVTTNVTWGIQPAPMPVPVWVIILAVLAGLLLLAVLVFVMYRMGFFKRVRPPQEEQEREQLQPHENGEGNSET
T1 sequence (P05556 21-798 limits assumed): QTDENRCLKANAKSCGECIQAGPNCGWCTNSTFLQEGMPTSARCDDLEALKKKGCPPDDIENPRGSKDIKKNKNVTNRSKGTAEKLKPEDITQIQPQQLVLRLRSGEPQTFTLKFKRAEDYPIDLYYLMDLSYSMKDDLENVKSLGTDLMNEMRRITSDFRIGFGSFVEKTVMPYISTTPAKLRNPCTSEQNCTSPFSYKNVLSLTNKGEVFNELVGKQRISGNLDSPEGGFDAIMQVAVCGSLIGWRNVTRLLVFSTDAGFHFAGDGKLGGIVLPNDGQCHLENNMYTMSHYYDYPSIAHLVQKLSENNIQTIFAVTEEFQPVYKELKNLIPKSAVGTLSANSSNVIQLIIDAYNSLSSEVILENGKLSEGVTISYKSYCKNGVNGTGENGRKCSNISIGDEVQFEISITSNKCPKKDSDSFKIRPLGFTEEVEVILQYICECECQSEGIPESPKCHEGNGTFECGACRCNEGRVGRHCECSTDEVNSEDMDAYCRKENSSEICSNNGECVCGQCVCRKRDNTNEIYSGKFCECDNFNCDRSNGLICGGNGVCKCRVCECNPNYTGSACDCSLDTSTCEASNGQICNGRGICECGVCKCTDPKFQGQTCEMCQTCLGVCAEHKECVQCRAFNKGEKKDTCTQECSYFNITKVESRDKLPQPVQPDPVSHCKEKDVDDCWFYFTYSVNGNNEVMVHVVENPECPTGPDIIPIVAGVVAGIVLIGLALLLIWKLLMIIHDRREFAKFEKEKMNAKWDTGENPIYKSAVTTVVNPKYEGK
T1 sequence (P08648 42-894 limits assumed): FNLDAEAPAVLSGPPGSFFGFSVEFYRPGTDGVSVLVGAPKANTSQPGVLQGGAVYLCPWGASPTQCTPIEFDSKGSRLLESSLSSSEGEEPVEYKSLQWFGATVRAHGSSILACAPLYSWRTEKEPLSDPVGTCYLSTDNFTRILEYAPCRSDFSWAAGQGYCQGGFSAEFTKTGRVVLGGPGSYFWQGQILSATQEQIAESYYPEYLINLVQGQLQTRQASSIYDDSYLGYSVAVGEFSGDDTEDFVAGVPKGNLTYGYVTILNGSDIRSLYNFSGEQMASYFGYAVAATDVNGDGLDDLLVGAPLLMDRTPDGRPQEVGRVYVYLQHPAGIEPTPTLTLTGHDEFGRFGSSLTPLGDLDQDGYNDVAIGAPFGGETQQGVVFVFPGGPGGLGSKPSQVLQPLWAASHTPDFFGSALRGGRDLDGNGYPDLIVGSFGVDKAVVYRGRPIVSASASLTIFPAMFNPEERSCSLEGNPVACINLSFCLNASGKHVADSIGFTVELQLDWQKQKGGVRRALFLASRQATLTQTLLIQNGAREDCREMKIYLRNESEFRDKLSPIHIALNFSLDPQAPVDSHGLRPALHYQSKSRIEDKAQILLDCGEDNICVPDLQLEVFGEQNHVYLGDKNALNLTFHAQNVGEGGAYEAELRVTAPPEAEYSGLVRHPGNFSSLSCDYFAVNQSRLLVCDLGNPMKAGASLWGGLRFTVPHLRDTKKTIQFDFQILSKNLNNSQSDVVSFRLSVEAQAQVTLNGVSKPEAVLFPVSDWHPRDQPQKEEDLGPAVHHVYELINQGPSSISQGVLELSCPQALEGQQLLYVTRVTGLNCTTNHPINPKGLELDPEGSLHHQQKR
T1 sequence (P08648 895-1049 limits assumed): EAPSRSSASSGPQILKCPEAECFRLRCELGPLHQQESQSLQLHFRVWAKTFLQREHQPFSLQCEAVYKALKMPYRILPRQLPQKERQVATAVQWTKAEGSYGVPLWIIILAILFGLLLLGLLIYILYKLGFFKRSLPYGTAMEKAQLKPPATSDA

Take `CNc1cccc(CCOc2ccc(C[C@H](NC(=O)C3CCCCC3C)C(=O)O)cc2)n1` (stereo partly drawn): in series [1], the Ratio IC50 was determined as 2.3. Also, in series [2], the “Drug uptake(free)” value worked out at 0.9%. Also, the IC50 (usually the point on the concentration scale where inhibition reaches its midpoint) was 29000 nM in series [3]; 420 nM in [4]; 960 nM in [5]; 960 nM in [6]; 71 nM in series [7].
As for `CNc1cccc(CCOc2c(C)cc(C[C@H](NC(=O)c3c(Cl)cccc3Cl)C(=O)O)cc2C)n1`, in [1], the Ratio IC50 was 1.5. The half-inhibitory concentration (IC50) was 21 nM in series [8]; 5800 nM in series [4]; 8800 nM in series [5]; 8800 nM in series [6]; 610 nM in series [7].
As to `CNc1cccc(CCOc2ccc(C[C@H](NC(=O)c3ccc(F)cc3C)C(=O)O)cc2)n1`, the Ratio IC50 in series [1] came out at 1.1. Further, in [2], the “Drug uptake(free)” value was 0.5%. Moreover, the IC50 in [8] turned out to be 9 nM; in [3], 24000 nM; in series [4] it was 470 nM; in [5], 510 nM; in series [6], 510 nM; in series [7] it was 36 nM.
Regarding `O=C(N[C@@H](Cc1ccc2oc(CCNc3ccccn3)cc2c1)C(=O)O)c1c(Cl)cccc1Cl`, the IC50 in series [8] turned out to be 890 nM; in [7], 4000 nM.
As to `COc1ccc([C@H](CC(=O)O)N2CCN(CCCc3ccc4c(n3)NCCC4)C2=O)cn1`, the Ratio IC50 in series [1] came out at 0.4. For the same compound, the half-inhibitory concentration (IC50) in series [4] was 2200 nM; in series [5], 0.3 nM; in [6] it was 810 nM; in series [7], 4600 nM.
Consider `CNc1cccc(CCOc2ccc(C[C@H](NC(=O)c3c(C)cc(C)cc3C)C(=O)O)cc2)n1`, for which, in [1], the Ratio IC50 came to 6.7. Besides, in [2], the “Drug uptake(free)” value was 0.5%. Besides, the half-maximal inhibitory concentration (IC50) amounted to 1 nM in series [8]; 1500 nM in series [3]; 57 nM in series [4]; 370 nM in series [5]; 380 nM in [6]; 22 nM in [7].
In the case of `CNc1cccc(CCOc2ccc(C[C@H](NC(=O)c3ccc(F)cc3Cl)C(=O)O)cc2)n1`, the entries for the “Drug uptake(free)” value in series [9] and in series [2] were 0.2% and 0.3%, respectively. Moreover, the Ratio IC50 in [1] amounted to 2.1. Besides, the IC50 is 2 nM in series [8]; 11000 nM in series [3]; 210 nM in series [4]; 440 nM in [5]; 440 nM in series [6]; 33 nM in series [7].
Take `CNc1cccc(CCOc2ccc(C[C@H](NC(=O)c3sccc3Cl)C(=O)O)cc2)n1`: the “Drug uptake(free)” value in series [9] came to 0.1%; in series [2], 0.2%. The Ratio IC50 in series [1] worked out at 1.1. The 50% inhibitory concentration (IC50) in series [3] amounted to 36000 nM; in series [4], 2700 nM; in series [5], 2900 nM; in series [6], 2900 nM; in series [7], 52 nM.
With `CNc1cccc(CCOc2ccc(C[C@H](NC(=O)c3ccc(F)cc3OC)C(=O)O)cc2)n1`, in series [1], the Ratio IC50 was found to be 1.3. Further, the IC50 in [8] was 130 nM; in series [3], > 100000 nM; in [4], 6500 nM; in [5], 8300 nM; in [6], 8300 nM; in series [7] it was 820 nM.
`CNc1cccc(CCOc2ccc(C[C@H](NC(=O)c3c(Cl)cccc3Cl)C(=O)O)cc2F)n1`: the Ratio IC50 in series [1] is 4.3. For the same compound, the IC50 in [8] is 2 nM; in series [4], 76 nM; in series [5], 290 nM; in series [6] it was 330 nM; in series [7], 47 nM.
Turning to `CNc1cccc(CCOc2ccc(C[C@H](NC(=O)c3c(C)noc3C)C(=O)O)cc2)n1`, in series [2], the “Drug uptake(free)” value turned out to be 3.8%.
On to `CNc1cccc(CCOc2ccc(C[C@H](NC(=O)c3c(Cl)cccc3Cl)C(=O)O)cn2)n1`, for which the Ratio IC50 in series [1] is 2.1. Further, the half-inhibitory concentration (IC50) was 6 nM in series [8]; 570 nM in [4]; 1200 nM in series [5]; 1200 nM in [6]; 110 nM in series [7].
Regarding `CNc1cccc(CCOc2ccc(C[C@H](NC(=O)c3c(Cl)cccc3Cl)C(=O)O)cc2)n1`, the “Drug uptake(free)” value amounted to 1% in series [9] and 1.1% in [2]. Also, the Ratio IC50 in series [1] came out at 2.3. Besides, the IC50 in series [8] was < 1 nM; in [3] it was 170 nM; in series [4], 97 nM; in series [5], 230 nM; in series [6], 230 nM; in series [7], 7 nM.
In the case of `CNc1cccc(CCOc2ccc(C[C@H](NC(=O)c3ccccc3Cl)C(=O)O)cc2)n1`, the “Drug uptake(free)” value in [9] is listed as 0.4%; in [2] it was 0.5%. The Ratio IC50 in [1] is 2.2. Moreover, the half-inhibitory concentration (IC50) in [8] is 3 nM; in series [3] it was > 26000 nM; in series [4], 240 nM; in series [5], 520 nM; in [6], 540 nM; in series [7], 42 nM.
With `CNc1cccc(CCOc2ccc(C[C@H](NC(=O)c3ccc(F)cc3C3CC3)C(=O)O)cc2)n1`, in [1], the Ratio IC50 stood at 2. In addition, the “Drug uptake(free)” value in [2] came out at 0.4%. Also, the 50% inhibitory concentration (IC50) in series [8] worked out at 3 nM; in series [3], 7700 nM; in series [4], 250 nM; in series [5] it was 520 nM; in [6], 510 nM; in series [7] it was 39 nM.
As to `CNc1cccc(CCCc2ccc(C[C@H](NC(=O)c3c(Cl)cccc3Cl)C(=O)O)s2)n1`, the Ratio IC50 in [1] amounted to 4.4. For the same compound, the concentration for half-maximal inhibition (IC50) in series [4] was found to be 180 nM; in series [5] it was 790 nM; in [6], 800 nM.
As to `O=C(N[C@@H](Cc1ccc(OCCCNc2ccccn2)cc1)C(=O)O)c1c(Cl)cccc1Cl`, the Ratio IC50 in series [1] is 4.2. Moreover, the 50% inhibitory concentration (IC50) was 11 nM in [8]; 610 nM in series [4]; 2600 nM in series [5]; 2500 nM in series [6]; 120 nM in [7].
With `CNc1cccc(CCOc2ccc(C[C@H](NC(=O)c3c(C)cccc3C)C(=O)O)cc2)n1`, the Ratio IC50 in series [1] was determined as 4.5. In addition, in series [2], the “Drug uptake(free)” value turned out to be 2.2%. In addition, the IC50 in [8] is 1 nM; in series [3], 420 nM; in [4] it was 90 nM; in series [5], 400 nM; in series [6] it was 400 nM; in [7] it was < 23 nM.
As to `O=C(N[C@@H](Cc1cccc(OCCCCNc2ccccn2)c1)C(=O)O)c1c(Cl)cccc1Cl`, the IC50 in series [8] was determined as 1900 nM; in [7] it was 83000 nM.
`CNc1cccc(CCOc2ccc(C[C@H](NC(=O)C3(C)CCCCC3)C(=O)O)cc2)n1`: the “Drug uptake(free)” value in series [9] amounted to 0.25%; in series [2] it was 0.9%. The Ratio IC50 in series [1] was 1.8. Further, the concentration for half-maximal inhibition (IC50) was found to be 7500 nM in [3]; 480 nM in series [4]; 830 nM in series [5]; 830 nM in series [6]; 39 nM in series [7].
Regarding `CNc1cccc(CCCc2csc(C[C@H](NC(=O)c3c(Cl)cccc3Cl)C(=O)O)c2)n1`, the half-maximal inhibitory concentration (IC50) in [8] was found to be 180 nM; in series [7], 400 nM.
On the same counts, the results for `CNc1cccc(CCCc2ccc(C[C@H](NC(=O)c3c(Cl)cccc3Cl)C(=O)O)cn2)n1` are 5 nM and 76 nM.
For `CNc1cccc(CCOc2ccc(C[C@H](NC(=O)c3c(Cl)cccc3Cl)C(=O)O)nc2)n1`, the Ratio IC50 in series [1] was 6.1. The IC50 in series [8] amounted to 1 nM; in [4], 84 nM; in [5] it was 620 nM; in series [6] it was 510 nM; in series [7] it was 26 nM.
`CNc1cccc(CCOc2ccc(C[C@H](NC(=O)c3ccccc3)C(=O)O)cc2)n1`: the Ratio IC50 in series [1] came out at 1.4. Further, the IC50 worked out at 49 nM in [8]; 5400 nM in series [4]; 6700 nM in series [5]; 7400 nM in series [6]; 430 nM in [7].
As to `CNc1cccc(CCCc2ccc(C[C@H](NC(=O)c3c(Cl)cccc3Cl)C(=O)O)cc2)n1`, the IC50 in [8] is 8 nM; in series [7], 46 nM.
`CCc1cc(F)ccc1C(=O)N[C@@H](Cc1ccc(OCCc2cccc(NC)n2)cc1)C(=O)O`: the Ratio IC50 in [1] is 1.7. The “Drug uptake(free)” value in series [2] is recorded as 0.4%. Moreover, the IC50 in [8] stood at 4 nM; in series [3], 5000 nM; in series [4], 200 nM; in series [5], 340 nM; in [6], 340 nM; in series [7] it was 24 nM.
As to `O=C(N[C@@H](Cc1cccc(OCCCNc2ccccn2)c1)C(=O)O)c1c(Cl)cccc1Cl`, the IC50 in series [7] stood at 20000 nM.
In the case of `O=C(N[C@@H](Cc1ccc(OCCNc2ccccn2)cc1)C(=O)O)c1c(Cl)cccc1Cl`, the results for the 50% inhibitory concentration (IC50) in [8] and in series [7] were 82 nM and 2500 nM, respectively.
On the same counts, the results for `O=C(N[C@@H](Cc1cccc(OCCNc2ccccn2)c1)C(=O)O)c1c(Cl)cccc1Cl` are 5900 nM and > 290000 nM.
On the same counts, the results for `CNc1cccc(CCCc2ccc(C[C@H](NC(=O)c3c(Cl)cccc3Cl)C(=O)O)nc2)n1` are 9 nM and 110 nM.
On the same counts, the results for `CNc1cccc(CCOc2csc(C[C@H](NC(=O)c3c(Cl)cccc3Cl)C(=O)O)c2)n1` are 110 nM and 510 nM.
In the case of `CNc1cccc(CCOc2ccc(C[C@H](NC(=O)c3c(Cl)cccc3Cl)C(=O)O)cc2C)n1`, in series [1], the Ratio IC50 stood at 3.6. The concentration for half-maximal inhibition (IC50) in [8] was 3 nM; in series [4], 180 nM; in series [5], 600 nM; in series [6], 640 nM; in series [7] it was 81 nM.
